The text below walks through data of US8354402B2, “Polyarylcarboxamides useful as lipid lowering agents” (Janssen Pharmaceutica N.V., priority 2000, dated 2013).

Assay [1] has as its system ApoB secretion, HepG2 cells. Description: Quantification of the secretion of ApoB (HepG2 cells, immunoprecipitation, scintillation counting). Format: cell-based. As to conditions: 24 hours of incubation; for IC50: Homo sapiens, HepG2, 24 h. The essentials: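 HepG2 cells in MEM Rega 3 with 10% FCS were treated at 70% confluency with compound (DMSO 0.4% final) for 24 h. Medium ApoB was immunoprecipitated with sheep anti-apoB then rabbit anti-sheep antibody (24 h each, 8° C), and pellet radioactivity was counted by liquid scintillation to give IC50.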

Another assay deals with MTP (Homo sapiens, UniProt P55157). The assay can be described thus: MTP assay (triglyceride transfer from donor to acceptor vesicles). Format: biochemical. Particulars: MTP activity, 37° C. On the procedure:
MTP activity was measured using an assay similar to one described by J. R. Wetterau and D. B. Zilversmit in Chemistry and Physics of Lipids (1985) 38, 205-222. In order to prepare the donor and acceptor vesicles, the appropriate lipids in chloroform were put into a glass test tube and dried under a stream of nitrogen. A buffer containing 15 mM Tris-HCl (pH 7.5), 1 mM ethylenediamine tetra-acetic acid, 40 mM NaCl, 0.02% NaN3 (assay buffer) was added to the dried lipid. The mixture was vortexed briefly and the lipids were then allowed to hydrate for 20 minutes on ice. Vesicles were then prepared by bath sonication (using a Branson 2200 device) at room temperature for at most 15 minutes. Butylated hydroxytoluene was included in all vesicle preparations at a concentration of 0.1%. The lipid transfer assay mixture contained donor vesicles (40 nmole phosphatidylcholine, 7.5 mole % cardiolipin and 0.25 mole % glycerol tri[1-^14C]-oleate), acceptor vesicles (240 nmol phosphatidylcholine) and 5 mg bovine serum albumin in a total volume of 675 μl in a 1.5 ml microcentrifuge tube. Test compounds were added dissolved in dimethylsulfoxide (0.13% final concentration). After 5 minutes of pre-incubation at 37° C., the reaction was started by the addition of MTP in 100 μl of a dialysis buffer. The reaction was stopped by the addition of 400 μl […] (DEAE)-52 cellulose (Sephadex) pre-equilibrated in 15 mM Tris-HCl (pH 7.5), 1 mM ethylenediamine tetra-acetic acid and 0.02% NaN3 (1:1 volume/volume). The mixture was agitated for 4 minutes and centrifuged for 2 minutes at maximum speed in an Eppendorf centrifuge (4° C.) to pellet the DEAE-52-bound donor vesicles. An aliquot of the supernatant containing the acceptor liposomes was counted and the [^14C]-counts were used to calculate the percent triglyceride transfer from donor to acceptor vesicles.
Resulting IC50 values are enumerated in Table C.2 for some of the above-referred compounds.

MTP, sequence (P55157 19-894, species assumed): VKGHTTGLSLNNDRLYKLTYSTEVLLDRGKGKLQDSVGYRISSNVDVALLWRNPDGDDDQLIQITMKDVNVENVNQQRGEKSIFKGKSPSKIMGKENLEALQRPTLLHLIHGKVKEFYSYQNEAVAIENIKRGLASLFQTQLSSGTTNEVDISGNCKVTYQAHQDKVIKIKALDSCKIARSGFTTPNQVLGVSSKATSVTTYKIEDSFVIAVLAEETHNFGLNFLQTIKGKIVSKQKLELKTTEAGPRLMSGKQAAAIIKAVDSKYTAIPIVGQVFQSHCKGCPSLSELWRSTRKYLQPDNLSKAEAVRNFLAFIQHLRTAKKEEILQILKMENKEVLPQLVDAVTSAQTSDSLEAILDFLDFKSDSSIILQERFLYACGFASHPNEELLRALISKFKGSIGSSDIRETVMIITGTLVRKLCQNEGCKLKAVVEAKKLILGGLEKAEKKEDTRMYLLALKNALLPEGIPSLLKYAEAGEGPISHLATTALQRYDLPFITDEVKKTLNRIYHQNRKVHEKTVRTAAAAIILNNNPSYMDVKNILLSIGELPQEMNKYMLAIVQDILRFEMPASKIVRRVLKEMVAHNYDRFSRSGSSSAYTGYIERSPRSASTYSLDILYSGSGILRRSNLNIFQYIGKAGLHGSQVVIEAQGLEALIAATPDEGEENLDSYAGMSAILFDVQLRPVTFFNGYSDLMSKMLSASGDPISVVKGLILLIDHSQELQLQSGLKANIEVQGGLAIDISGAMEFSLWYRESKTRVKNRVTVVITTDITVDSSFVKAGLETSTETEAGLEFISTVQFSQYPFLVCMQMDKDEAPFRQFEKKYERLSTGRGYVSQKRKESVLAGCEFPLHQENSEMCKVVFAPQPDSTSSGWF
MTP, sequence (P07237 18-508 partner, species assumed): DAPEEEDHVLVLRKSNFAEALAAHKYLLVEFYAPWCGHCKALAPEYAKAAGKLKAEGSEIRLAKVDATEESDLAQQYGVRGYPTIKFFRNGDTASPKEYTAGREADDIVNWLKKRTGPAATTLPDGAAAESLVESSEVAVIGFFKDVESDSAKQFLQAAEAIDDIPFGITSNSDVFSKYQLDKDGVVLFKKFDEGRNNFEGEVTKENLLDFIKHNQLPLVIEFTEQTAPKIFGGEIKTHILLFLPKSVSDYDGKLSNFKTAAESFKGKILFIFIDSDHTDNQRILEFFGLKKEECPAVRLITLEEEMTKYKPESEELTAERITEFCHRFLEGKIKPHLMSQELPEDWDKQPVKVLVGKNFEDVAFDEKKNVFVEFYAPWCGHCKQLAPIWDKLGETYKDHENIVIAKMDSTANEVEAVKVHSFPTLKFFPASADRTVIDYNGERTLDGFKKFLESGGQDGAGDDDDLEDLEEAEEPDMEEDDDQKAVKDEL

The term IC50 denotes the concentration that inhibits the measured activity by half. The low end stands for higher potency, the high end for lower potency. With `CCCCCNC(=O)C(c1ccccc1)N1CCC(c2ccc(NC(=O)c3ccccc3-c3ccc(C(F)(F)F)cc3)cc2)CC1` (stereo not drawn) [Co. No. 75], the IC50 was 11.4 nM in assay [1] and 8.38 nM at MTP. Regarding `CCOC(=O)C(c1ccccc1)N1CCC(c2ccc(NC(=O)c3ccccc3-c3ccc(C(F)(F)F)cc3)cc2)CC1` (stereo not drawn) [Co. No. 222], the values for the IC50 (in assay [1]; on MTP) were 19.2 nM and 8.41 nM, respectively.

Consider `CCNC(=O)C(c1ccccc1)C1CCN(c2ccc(NC(=O)c3ccccc3-c3ccc(C(C)(C)C)cc3)cc2)CC1` (stereo not drawn) [Co. No. 87], for which the values for the IC50 (in assay [1]; on MTP) were 2.05 nM and 3.2 nM, respectively. In general, pIC50 refers to the IC50 on a negative log10 scale, so that one unit is a factor of ten. A high value points to a low IC50. The molecule `COC(=O)C(c1ccccc1)C1CCN(c2ccc(NC(=O)c3ccccc3-c3ccc(C(F)(F)F)cc3)cc2)CC1` (stereo not drawn) [Co. No. 242] had a pIC50 in assay [1] (listed as 242) of 8.133. At MTP, this molecule gave an IC50 of 11.5 nM.

As to `COC(=O)C(c1ccccc1)C1CCN(c2ccc(NC(=O)c3ccccc3-c3ccc(C(C)C)cc3)cc2)CC1` (stereo not drawn) [Co. No. 232], the IC50 in assay [1] was under 30 nM; against MTP, 25 nM. The molecule `CCOC(=O)C(c1ccccc1)N1CCC(c2ccc(NC(=O)c3ccccc3-c3ccc(C(F)(F)F)cc3)cc2)CC1` (single isomer, unassigned) [Co. No. 264] showed an IC50 against MTP of 31.8 nM. Regarding `CCCNC(=O)C(c1ccccc1)N1CCN(c2ccc(NC(=O)c3ccccc3-c3ccc(C(F)(F)F)cc3)cc2)CC1` (stereo not drawn) [Co. No. 55], the IC50 in assay [1] is at most 30 nM; at MTP, 4.27 nM. In the same order, the values of `O=C(Nc1ccc(N2CCC(C(C(=O)NCc3ccccc3)c3ccccc3)CC2)cc1)c1ccccc1-c1ccc(C(F)(F)F)cc1` (stereo not drawn) [Co. No. 11] are 4.62 nM and 7.31 nM. The matching figures for `O=C(Nc1ccc(N2CCC(C(C(=O)NCc3ccccc3)c3ccccc3)CC2)cc1)c1ccccc1-c1ccccc1` (stereo not drawn) [Co. No. 3]: 25.6 nM and 18.4 nM.

In assay [1], `COC(=O)C(c1ccccc1)N1CCC(c2ccc(NC(=O)c3ccccc3-c3ccc(C(F)(F)F)cc3)cc2)CC1` (single isomer, unassigned) [Co. No. 230] came in with a pIC50 of 8.31. Also, on MTP, the IC50 was 3.64 nM. At MTP, `CCNC(=O)C(c1ccccc1)N1CCN(c2ccc(NC(=O)c3cccc(C)c3-c3ccc(C(F)(F)F)cc3)cc2)CC1` (stereo not drawn) [Co. No. 199] gave an IC50 of 4.63 nM.

As to `COC(=O)C(c1ccccc1)N1CCN(c2ccc(NC(=O)c3ccccc3-c3ccc(C(F)(F)F)cc3)cc2)CC1` (stereo not drawn) [Co. No. 40, methyl α-phenyl-4-[4-[[[4′-(trifluoromethyl)[1,1′-biphenyl]-2-yl]carbonyl]amino]phenyl]-1-piperazineacetate], the pIC50 in assay [1] (listed as 40) was determined as 7.586. In addition, 4.53 nM corresponded to half-maximal inhibition on MTP (IC50). As for `O=C(Nc1ccc(N2CCC(C(C(=O)NCc3ccccc3)c3ccccc3)CC2)cc1)c1ccccc1COc1ccccc1` (stereo not drawn) [Co. No. 7], the figures for the IC50 (in assay [1]; at MTP) were 261 nM and 363 nM, respectively.

Molecule `COC(=O)C(c1ccccc1)C1CCN(c2ccc(NC(=O)c3ccccc3-c3ccc(C(F)(F)F)cc3)cc2)CC1` (stereo not drawn) [Co. No. 241] came in with a pIC50 in assay [1] (listed as 241) of 7.578. At MTP, this molecule showed an IC50 of 10.4 nM. Take `O=C(Nc1ccc(N2CCN(C(C(=O)NCc3ccccc3)c3ccccc3)CC2)cc1)c1ccccc1-c1ccc(C(F)(F)F)cc1` (stereo not drawn) [Co. No. 61]: the figures for the IC50 (in assay [1]; against MTP) were 3.85 nM and 4.79 nM, respectively.

Turning to `COC(=O)C(c1ccccc1)N1CCN(c2ccc(NC(=O)c3ccccc3-c3ccc(C(F)(F)F)cc3)cc2)CC1` (stereo not drawn) [Co. No. 239], the pIC50 in assay [1] (listed as 239) came to 7.855. Further, the midpoint of inhibition against MTP, the IC50, lay at 1.98 nM. Take `COC(=O)C(c1ccccc1)C1CCN(c2ccc(NC(=O)c3ccccc3-c3ccc(C(C)(C)C)cc3)cc2)CC1` (stereo not drawn) [Co. No. 203]: the pIC50 in assay [1] (listed as 203) worked out at 8.333. Further, the IC50 on MTP is 2.08 nM. The molecule `CCOC(=O)C(c1ccccc1)N1CCC(c2ccc(NC(=O)c3ccccc3-c3ccc(C(F)(F)F)cc3)cc2)CC1` (single isomer, unassigned) [Co. No. 265] had an IC50 against MTP of 5.62 nM. `CCCNC(=O)C(c1ccccc1)C1CCN(c2ccc(NC(=O)c3ccccc3-c3ccccc3Cl)cc2)CC1` (stereo not drawn) [Co. No. 45] had an IC50 in assay [1] of at least 3000 nM. Same read-out and setting: next, `COC(=O)C(c1ccccc1)N1CCN(c2ccc(NC(=O)c3ccccc3-c3ccc(C(F)(F)F)cc3)c(C)c2)CC1` (stereo not drawn) [Co. No. 208]: 7.48 nM; `C=CCNC(=O)C(c1ccccc1)N1CCN(c2ccc(NC(=O)c3ccccc3-c3ccccc3)cc2)CC1` (stereo not drawn) [Co. No. 148]: 60.4 nM. The same measure, in the same setting: next, `CCC(CC)OC(=O)C(c1ccccc1)C1CCN(c2ccc(NC(=O)c3ccccc3-c3ccc(C(F)(F)F)cc3)cc2)CC1` (stereo not drawn) [Co. No. 247]: over 3000 nM; `CC(C)NC(=O)C(c1ccccc1)C1CCN(c2ccc(NC(=O)c3ccccc3CSc3ccccc3)cc2)CC1` (stereo not drawn) [Co. No. 24]: 847 nM; `O=C(Nc1ccc(N2CCC(C(C(=O)NCc3ccccc3)c3ccccc3)CC2)cc1)c1ccccc1-c1ccc(Cl)cc1` (stereo not drawn) [Co. No. 100]: 11.6 nM.

`COC(=O)C(c1ccccc1)N1CCN(c2ccc(NC(=O)c3cc(Cl)ccc3-c3ccc(C(F)(F)F)cc3)cc2)CC1` (stereo not drawn) [Co. No. 191] showed an IC50 in assay [1] of 7.19 nM. This IC50 lies about 1.6-fold lower than the previous one. In turn, `COC(=O)C(c1ccccc1)C1CCN(c2ccc(NC(=O)c3cccc(C)c3-c3ccc(C(C)C)cc3)cc2)CC1` (stereo not drawn) [Co. No. 235] gave an IC50 in assay [1] of under 30 nM. Still for that read-out and setting: next, `CCNC(=O)C(c1ccccc1)N1CCC(c2ccc(NC(=O)c3ccccc3-c3ccccc3)cc2)CC1` (stereo not drawn) [Co. No. 149]: 41.7 nM; `O=C(Nc1ccc(N2CCC(C(C(=O)Nc3ccccc3)c3ccccc3)CC2)cc1)c1ccccc1-c1ccc(Cl)c(Cl)c1` (stereo not drawn) [Co. No. 110]: 158 nM; `C#CCOC(=O)C(c1ccccc1)C1CCN(c2ccc(NC(=O)c3ccccc3-c3ccc(C(F)(F)F)cc3)cc2)CC1` (stereo not drawn) [Co. No. 248]: 68.5 nM.

`CCNC(=O)C(c1ccccc1)C1CCN(c2ccc(NC(=O)c3ccccc3-c3ccc(C)cc3)cc2)CC1` (stereo not drawn) [Co. No. 94] gave an IC50 in assay [1] of 44.1 nM. On the same count and under the same terms, next, `CCCNC(=O)C(c1ccccc1)C1CCN(c2ccc(NC(=O)c3ccccc3COc3ccccc3)cc2)CC1` (stereo not drawn) [Co. No. 17]: 199 nM. On the same count and under the same terms, then `CC(C)NC(=O)C(c1ccccc1)C1CCN(c2ccc(NC(=O)c3ccccc3Oc3ccccc3)cc2)CC1` (stereo not drawn) [Co. No. 27], with 1300 nM; and `COC(=O)C(c1ccccc1)N1CCN(c2ccc(NC(=O)c3ccccc3-c3ccc(C(F)(F)F)cc3)cc2Cl)CC1` (stereo not drawn) [Co. No. 205], with 47.5 nM; and `CC(C)CCOC(=O)C(c1ccccc1)C1CCN(c2ccc(NC(=O)c3ccccc3-c3ccc(C(F)(F)F)cc3)cc2)CC1` (stereo not drawn) [Co. No. 249], with over 3000 nM. On the same count and under the same terms, next, `O=C(Nc1ccc(N2CCC(C(C(=O)Nc3ccccc3)c3ccccc3)CC2)cc1)c1ccccc1-c1ccccc1Cl` (stereo not drawn) [Co. No. 115]: 1710 nM. In assay [1], `CCNC(=O)C(c1ccccc1)N1CCN(c2ccc(N(C)C(=O)c3ccccc3-c3ccc(C(F)(F)F)cc3)cc2)CC1` (stereo not drawn) [Co. No. 182] showed a 50% inhibitory concentration (IC50) of 7.62 nM. On the same count and under the same terms, then `O=C(Nc1ccc(N2CCC(C(C(=O)Nc3ccccc3)c3ccccc3)CC2)cc1)c1ccccc1Oc1ccccc1` (stereo not drawn) [Co. No. 34], with 1550 nM; and `CCCNC(=O)C(c1ccccc1)C1CCN(c2ccc(NC(=O)c3cccc4c3Cc3ccccc3-4)cc2)CC1` (stereo not drawn) [Co. No. 14], with at least 3000 nM. The same measure, in the same setting: then `O=C(Nc1ccc(C2CCN(C(C(=O)Nc3ccccc3)c3ccccc3)CC2)cc1)c1ccccc1-c1ccccc1` (stereo not drawn) [Co. No. 162], with 96.6 nM.
